Test results taken from patent US10562912B2 (C&C Research Laboratories, priority 2013, dated 2020).

What was measured:
Format in all cases: cell-based
MDA-MB-231 = experiment: Cell growth inhibition assay, breast cancer cell line MDA-MB-231; details: Homo sapiens; MDA-MB-231 breast cancer cell line, 5,000 cells/well
STAT3 = target: T1, STAT3 (Homo sapiens, UniProt P40763); experiment: STAT3 reporter gene assay (luciferase), LNCaP stable cell line (pSTAT3-TA-luc), IL-6 stimulation
T1 construct: plasmid pSTAT3-TA-luc), which contains a stably operating STAT3 promoter; endogenous in cells
T1 sequence (P40763 whole entry): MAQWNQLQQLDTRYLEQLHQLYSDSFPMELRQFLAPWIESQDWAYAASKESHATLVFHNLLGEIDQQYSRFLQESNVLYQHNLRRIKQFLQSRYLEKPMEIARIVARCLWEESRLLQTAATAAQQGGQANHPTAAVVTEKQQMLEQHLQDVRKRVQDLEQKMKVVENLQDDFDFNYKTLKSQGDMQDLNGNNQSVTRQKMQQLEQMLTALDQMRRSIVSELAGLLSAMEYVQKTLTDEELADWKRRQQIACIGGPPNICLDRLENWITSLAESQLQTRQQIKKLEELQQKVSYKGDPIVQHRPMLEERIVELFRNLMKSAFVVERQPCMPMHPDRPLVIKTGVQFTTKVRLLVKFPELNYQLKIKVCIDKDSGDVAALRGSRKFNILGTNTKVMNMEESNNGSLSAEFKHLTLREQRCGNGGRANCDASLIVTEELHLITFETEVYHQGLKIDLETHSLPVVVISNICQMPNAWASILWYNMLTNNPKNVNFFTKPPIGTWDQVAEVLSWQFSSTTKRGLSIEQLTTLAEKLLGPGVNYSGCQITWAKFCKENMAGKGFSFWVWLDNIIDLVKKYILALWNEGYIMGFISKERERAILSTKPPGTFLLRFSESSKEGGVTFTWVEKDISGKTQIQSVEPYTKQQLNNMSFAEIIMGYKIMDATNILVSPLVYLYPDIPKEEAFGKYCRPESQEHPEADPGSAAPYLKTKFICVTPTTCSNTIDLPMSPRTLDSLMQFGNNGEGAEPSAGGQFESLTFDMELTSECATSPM
In short: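 Cytotoxicity was run on a duplicate plate with CellTiter-Glo, while the other plate gave luciferase read-outs from lysed LNCaP pSTAT3-TA-luc reporter cells. Cells were treated with graded compound concentrations plus IL-6 (10 ng/mL final) for 24–48 h in 3% DCC-FBS medium. Unstimulated and stimulated wells served as negative and positive controls.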

LNCaP = experiment: Cell growth inhibition assay, prostate cancer cell line LNCaP (medium with 10 ng/mL IL-6); details: Homo sapiens, medium supplemented with 10 ng/mL of IL-6, 10,000 cells/well

Structure (SMILES)	IC50 (MDA-MB-231) [µM]	IC50 (STAT3) [µM]	IC50 (LNCaP) [µM]
Cc1c(C(=O)Nc2cccc(C(C)(C)c3ccc(F)cc3)c2)sc2ccc(NS(C)(=O)=O)cc12 [Example 52, N-(3-(2-(4-fluorophenyl)propan-2-yl)phenyl)-3-methyl-5-(methylsulfonamido)benzo[b]thiophene-2-carboxamide]	0.7	1.5	4.7
COc1cc2cc(C(=O)Nc3cccc(-c4ccc(F)cc4F)c3)[nH]c2cc1NS(C)(=O)=O [Example 236, N-(2′,4′-difluoro-[1,1′-biphenyl]-3-yl)-5-methoxy-6-(methylsulfonamido)-1H-indole-2-carboxamide]	0.41	0.31	2.7
O=C(Nc1cccc(-c2ccc(F)cc2F)c1)c1cc2cc(OC(F)(F)F)ccc2[nH]1 [Example 239, N-(2′,4′-difluoro-[1,1′-biphenyl]-3-yl)-5-(trifluoromethoxy)-1H-indole-2-carboxamide]	> 10	> 10	8.3
CC(C)(c1cccc(NC(=O)c2cc3cc(NS(C)(=O)=O)ccc3s2)c1)c1ccc(F)cc1F [Example 27, N-(3-(2-(2,4-difluorophenyl)propan-2-yl)phenyl)-5-(methylsulfonamido)benzo[b]thiophene-2-carboxamide]	0.033	0.08	0.67
CC(C)(c1cccc(CN2CCNCC2)c1)c1cc(Br)cc(NC(=O)c2cc3cc(NS(C)(=O)=O)ccc3s2)c1 [Example 118, N-(3-bromo-5-(2-(3-(piperazin-1-ylmethyl)phenyl)propan-2-yl)phenyl)-5-(methylsulfonamido) benzo[b]thiophene-2-carboxamide]	8.6	> 10	> 10
CC(C)(c1ccc(F)cc1)c1cccc(NC(=O)c2cc3cc(NS(C)(=O)=O)ccc3o2)c1 [Example 28, N-(3-(2-(4-fluorophenyl)propan-2-yl)phenyl)-5-(methylsulfonamido)benzofuran-2-carboxamide]	1	0.61	4.7
CC(C)(c1cc(Br)cc(NC(=O)c2cc3ccc(NS(C)(=O)=O)cc3[nH]2)c1)c1cc(OC(F)(F)F)ccc1F [Example 23, N-(3-bromo-5-(2-(2-fluoro-5-(trifluoromethoxy)phenyl)propan-2-yl)phenyl)-6-(methylsulfonamido)-1H-indole-2-carboxamide]	0.028	0.045	0.17
CC(C)(c1ccccc1)c1cccc(NC(=O)c2cc3ccc(NS(C)(=O)=O)cc3[nH]2)c1 [Example 2, 6-(methylsulfonamido)-N-(3-(2-phenylpropan-2-yl)phenyl)-1H-indole-2-carboxamide]	0.14	0.2	5.3
C#Cc1cc(NC(=O)c2cc3ccc(NS(C)(=O)=O)cc3[nH]2)cc(C(C)(C)c2ccc(F)cc2)c1 [Example 107, N-(3-ethynyl-5-(2-(4-fluorophenyl)propan-2-yl)phenyl)-6-(methylsulfonamido)-1H-indole-2-carboxamide]	0.29	0.42	1.2
CC(C)(c1ccc(F)cc1)c1cccc(NC(=O)c2cc3ccc(S(C)(=O)=O)cc3[nH]2)c1 [Example 6, N-(3-(2-(4-fluorophenyl)propan-2-yl)phenyl)-6-(methylsulfonyl)-1H-indole-2-carboxamide]	> 10	> 10	> 10
CC(C)(c1cccc(C#N)c1)c1cccc(NC(=O)c2cc3cc(NS(C)(=O)=O)ccc3s2)c1 [Example 224, N-(3-(2-(3-cyanophenyl)propan-2-yl)phenyl)-5-(methylsulfonamido)benzo[b]thiophene-2-carboxamide]	0.033	0.26	0.27
CNS(=O)(=O)Nc1ccc2cc(C(=O)Nc3cccc(C(C)(C)c4ccc(F)cc4)c3)[nH]c2c1 [Example 5, N-(3-(2-(4-fluorophenyl)propan-2-yl)phenyl)-6-((N-methylsulfamoyl)amino)-1H-indole-2-carboxamide]	1.2	1.2	4.7
CC(C)(c1cc(Br)cc(NC(=O)c2cc3ccc(NS(C)(=O)=O)cc3[nH]2)c1)c1cccc(OCC(N)=O)c1 [Example 18, N-(3-(2-(3-(2-amino-2-oxoethoxy)phenyl)propan-2-yl)-5-bromophenyl)-6-(methylsulfonamido)-1H-indole-2-carboxamide]	8.7	5.4	9.6
CC(C)(c1cc(Br)cc(NC(=O)c2cc3cc(NS(C)(=O)=O)ccc3s2)c1)c1cc(OCC(N)=O)ccc1F [Example 44, N-(3-(2-(5-(2-amino-2-oxoethoxy)-2-fluorophenyl)propan-2-yl)-5-bromophenyl)-5-(methylsulfonamido)benzo[b]thiophene-2-carboxamide]	4	1.4	5.2

Further lines, results first:

IC50 (MDA-MB-231) [µM]	IC50 (STAT3) [µM]	IC50 (LNCaP) [µM]	Structure (SMILES)
0.38	0.46	1.3	CS(=O)(=O)Nc1ccc2cc(C(=O)Nc3cccc(C4(c5ccc(F)cc5)CC4)c3)[nH]c2c1 [Example 425, N-(3-(1-(4-fluorophenyl)cyclopropyl)phenyl)-6-(methylsulfonamido)-1H-indole-2-carboxamide]
0.91	0.33	3.8	COc1ccc(-c2cc(NC(=O)c3cc4ccc(NS(C)(=O)=O)cc4[nH]3)cc(-c3ccc(F)cc3F)c2)cn1 [Example 382, N-(2′,4′-difluoro-5-(6-methoxypyridin-3-yl)-[1,1′-biphenyl]-3-yl)-6-(methylsulfonamido)-1H-indole-2-carboxamide]
3.5	8.4	9.2	CS(=O)(=O)Nc1ccc2cc(C(=O)Nc3cc(-c4ccc(F)cc4F)c4cn[nH]c4c3)[nH]c2c1 [Example 246, N-(4-(2,4-difluorophenyl)-1H-indazol-6-yl)-6-(methylsulfonamido)-1H-indole-2-carboxamide]
> 10	> 10	> 10	CS(=O)(=O)Nc1ccc2cc(C(=O)Nc3cc(-c4cnc(N)nc4)cc(-c4ccc(F)cc4F)c3)[nH]c2c1 [Example 361, N-(5-(2-aminopyrimidin-5-yl)-2′,4′-difluoro-[1,1′-biphenyl]-3-yl)-6-(methylsulfonamido)-1H-indole-2-carboxamide]
> 10	8.2	> 10	CS(=O)(=O)Nc1ccc2cc(C(=O)Nc3cc(C(=O)N4CCOCC4)cc(-c4ccc(F)cc4F)c3)[nH]c2c1 [Example 321, N-(2′,4′-difluoro-5-(morpholine-4-carbonyl)-[1,1′-biphenyl]-3-yl)-6-(methylsulfonamido)-1H-indole-2-carboxamide]
0.88	1.3	2.4	CS(=O)(=O)Nc1ccc2cc(C(=O)Nc3cc(CC#N)cc(-c4ccc(F)cc4F)c3)[nH]c2c1 [Example 363, N-(5-(cyanomethyl)-2′,4′-difluoro-[1,1′-biphenyl]-3-yl)-6-(methylsulfonamido)-1H-indole-2-carboxamide]
1.2	1.5	5.9	Cc1c(C(=O)Nc2cc(Br)cc(-c3ccc(F)cc3F)c2)sc2cc(NS(C)(=O)=O)ccc12 [Example 309, N-(5-bromo-2′,4′-difluoro-[1,1′-biphenyl]-3-yl)-3-methyl-6-(methylsulfonamido)benzo[b]thiophene-2-carboxamide]
1	5.7	6.7	Cc1c(C(=O)Nc2cc(Br)cc(-c3ccc(F)cc3F)c2)sc2ccc(NS(C)(=O)=O)cc12 [Example 311, N-(5-bromo-2′,4′-difluoro-[1,1′-biphenyl]-3-yl)-3-methyl-5-(methylsulfonamido)benzo[b]thiophene-2-carboxamide]
> 10	6.3	> 10	CC(C)(c1cccc(NC(=O)c2cc3ccc(N(CC(N)=O)S(C)(=O)=O)cc3[nH]2)c1)c1cc(OCC(N)=O)cc(OC(F)(F)F)c1 [Example 437, N-(3-(2-(3-(2-amino-2-oxoethoxy)-5-(trifluoromethoxy)phenyl)propan-2-yl)phenyl)-6-(N-(2-amino-2-oxoethyl)methylsulfonamido)-1H-indole-2-carboxamide]
0.69	0.72	2.6	CS(=O)(=O)Nc1ccc2cc(C(=O)Nc3cc(-c4ccc(F)cc4F)cc(-c4ccc(F)cc4F)c3)[nH]c2c1 [Example 362, 6-(methylsulfonamido)-N-(2,2″,4,4″-tetrafluoro-[1,1′:3′,1″-terphenyl]-5′-yl)-1H-indole-2-carboxamide]
0.32	0.48	2.3	CS(=O)(=O)Nc1ccc2cc(C(=O)Nc3cc(-c4ccc(F)nc4)cc(-c4ccc(F)cc4F)c3)[nH]c2c1 [Example 349, N-(2′,4′-difluoro-5-(6-fluoropyridin-3-yl)-[1,1′-biphenyl]-3-yl)-6-(methylsulfonamido)-1H-indole-2-carboxamide]
8.1	5.6	> 10	O=C(Nc1cc(Br)cc(-c2ccc(F)cc2F)c1)c1cc2cc(OC(F)(F)F)ccc2[nH]1 [Example 308, N-(5-bromo-2′,4′-difluoro-[1,1′-biphenyl]-3-yl)-5-(trifluoromethoxy)-1H-indole-2-carboxamide]
4.3	5.8	> 10	CC(O)(c1ccccc1)c1cccc(NC(=O)c2cc3ccc(NS(C)(=O)=O)cc3[nH]2)c1 (stereo not drawn) [Example 435, N-(3-(1-hydroxy-1-phenylethyl)phenyl)-6-(methylsulfonamido)-1H-indole-2-carboxamide]
